Data reported in the OligoGym collection.
These antisense oligonucleotides have a phosphorothioate backbone; sugars and methylation of C are not fully specified.

Details: ASO
Note: test concentration or dose not given here.

Question: With AGGAGGCAGTACTGGAGTCT as the sequence, how does the remaining target (mRNA or protein) (fraction of control) read?
Answer: 0.7

Question: For GCGCGTCCGGTGCTCCCA, which remaining target (mRNA or protein) (fraction of control) is on record?
Answer: 0.75

Question: With ACCAGCCCCGAGCGTTTG as the sequence, how does the remaining target (mRNA or protein) (fraction of control) read?
Answer: 0.74

Question: Which remaining target (mRNA or protein) (fraction of control) does the source give for TCAACTTCTTTTGCCGAA here?
Answer: 0.62

Question: Which remaining target (mRNA or protein) (fraction of control) does the source give for GACGTGCCTTTCTGCTAC here?
Answer: 0.72

Question: For CGCACAGCCCTTCACGGCAA, which remaining target (mRNA or protein) (fraction of control) is on record?
Answer: 0.32

Question: With ATCCCCTGATTTCTTCAC as the sequence, how does the remaining target (mRNA or protein) (fraction of control) read?
Answer: 0.53

Question: Which remaining target (mRNA or protein) (fraction of control) does the source give for TGCTTGTGGGCCGCGATT here?
Answer: 0.24

Question: Which remaining target (mRNA or protein) (fraction of control) does the source give for CCAACAAAACAGTCCAAA here?
Answer: 0.94

Question: For ATCCGCAGGTTGGTTTTC, which remaining target (mRNA or protein) (fraction of control) is on record?
Answer: ≥ 1

Question: For GGGGTGGTGGAGTGCATAAG, which remaining target (mRNA or protein) (fraction of control) is on record?
Answer: 0.9

Question: Which remaining target (mRNA or protein) (fraction of control) does the source give for GCACAGCCTGTCTTCAAA here?
Answer: ≥ 1

Question: Which remaining target (mRNA or protein) (fraction of control) does the source give for TTATAAGCCAAAGTGCGT here?
Answer: ≥ 1

Question: For CTCGTAACAAACTGGTCGAA, which remaining target (mRNA or protein) (fraction of control) is on record?
Answer: 0.83

Question: For TCGGCGGTGGCAAGGCTT, which remaining target (mRNA or protein) (fraction of control) is on record?
Answer: 0.97

Question: With CGTCGGGCTCCTTGCTGA as the sequence, how does the remaining target (mRNA or protein) (fraction of control) read?
Answer: ≥ 1

Question: For TTTCTATCGTTGAGTTTCTG, which remaining target (mRNA or protein) (fraction of control) is on record?
Answer: ≥ 1

Question: For CCGCTCTTGGGTCTGGCA, which remaining target (mRNA or protein) (fraction of control) is on record?
Answer: 0.29

Question: Which remaining target (mRNA or protein) (fraction of control) does the source give for GATGACGGATGTGCTTTT here?
Answer: 0.74

Question: With AATTCTGCCAGGTTGCTG as the sequence, how does the remaining target (mRNA or protein) (fraction of control) read?
Answer: ≥ 1

Question: With TGGAGAGATAGACCAGGA as the sequence, how does the remaining target (mRNA or protein) (fraction of control) read?
Answer: 0.67

Question: For GGTAGGTCGTAGAAGATG, which remaining target (mRNA or protein) (fraction of control) is on record?
Answer: ≥ 1

Question: Which remaining target (mRNA or protein) (fraction of control) does the source give for TCAGCATCCTGCTTAGGG here?
Answer: ≥ 1

Question: Which remaining target (mRNA or protein) (fraction of control) does the source give for CCTTCAAAAGTTGTGCGG here?
Answer: ≥ 1

Question: Which remaining target (mRNA or protein) (fraction of control) does the source give for ATCTTCTTCTCTTTCCTT here?
Answer: ≥ 1

Question: Which remaining target (mRNA or protein) (fraction of control) does the source give for GTTCCAGGATAGTCCCAA here?
Answer: 0.34

Question: For CCACCGCCGCCGCCGCTG, which remaining target (mRNA or protein) (fraction of control) is on record?
Answer: 0.62

Question: With GATCTTGCAGACGGTAGCTG as the sequence, how does the remaining target (mRNA or protein) (fraction of control) read?
Answer: 0.3

Question: For CCGTGGATGATCCGCATC, which remaining target (mRNA or protein) (fraction of control) is on record?
Answer: ≥ 1

Question: For TTCTCCTCCAGGCACTGG, which remaining target (mRNA or protein) (fraction of control) is on record?
Answer: ≥ 1

Question: Which remaining target (mRNA or protein) (fraction of control) does the source give for ACCACAGAACTGAAGGTT here?
Answer: ≥ 1

Question: For AGCTCCCTTCTTACTCCC, which remaining target (mRNA or protein) (fraction of control) is on record?
Answer: 0.69

Question: Which remaining target (mRNA or protein) (fraction of control) does the source give for GGCAAGGCTTGAGTGCTG here?
Answer: 0.42

Question: For ATCGTGCGCCCTTCTTGC, which remaining target (mRNA or protein) (fraction of control) is on record?
Answer: ≥ 1

Question: For TGGTGGAGTGCATAAGAGGC, which remaining target (mRNA or protein) (fraction of control) is on record?
Answer: 0.47

Question: With AAAGCCGTGGTGAACTGACT as the sequence, how does the remaining target (mRNA or protein) (fraction of control) read?
Answer: 0.84

Question: For TTCTGGCACTTTCTATGA, which remaining target (mRNA or protein) (fraction of control) is on record?
Answer: 0.72

Question: With GTCCAGGTAGCGGGCGAG as the sequence, how does the remaining target (mRNA or protein) (fraction of control) read?
Answer: ≥ 1

Question: Which remaining target (mRNA or protein) (fraction of control) does the source give for GTCTTCAGTGTTTTCATT here?
Answer: ≥ 1

Question: Which remaining target (mRNA or protein) (fraction of control) does the source give for CCAGGCTAAACCAGGCTG here?
Answer: 0.43

Question: With AGGTGACACGCCCGGAGA as the sequence, how does the remaining target (mRNA or protein) (fraction of control) read?
Answer: ≥ 1

Question: For CATAAGAGGCCACAGCAGGC, which remaining target (mRNA or protein) (fraction of control) is on record?
Answer: 0.41

Question: For AGAGGCAGAGAAGAGAGC, which remaining target (mRNA or protein) (fraction of control) is on record?
Answer: 0.93

Question: For ATTTCTCTCGTCCGCAAA, which remaining target (mRNA or protein) (fraction of control) is on record?
Answer: 0.34

Question: Which remaining target (mRNA or protein) (fraction of control) does the source give for AAATGGCCGTTTTGCTCC here?
Answer: ≥ 1

Question: Which remaining target (mRNA or protein) (fraction of control) does the source give for GTCCCTGCACCCCTAGTC here?
Answer: ≥ 1

Question: Which remaining target (mRNA or protein) (fraction of control) does the source give for CTCGATCGCTCCTCGTGC here?
Answer: ≥ 1

Question: For AGCCAAATGGGAACTCACAG, which remaining target (mRNA or protein) (fraction of control) is on record?
Answer: 0.74

Question: For CCCGGGCAGCTGAGAGCCCT, which remaining target (mRNA or protein) (fraction of control) is on record?
Answer: 0.72

Question: With CTCCGGCGCGCACGGGAACC as the sequence, how does the remaining target (mRNA or protein) (fraction of control) read?
Answer: 0.55

Question: Which remaining target (mRNA or protein) (fraction of control) does the source give for TTCAAGTCTTCTTCCAAT here?
Answer: 0.85

Question: Which remaining target (mRNA or protein) (fraction of control) does the source give for GAGTTGGTAGCCTCCGTT here?
Answer: ≥ 1

Question: Which remaining target (mRNA or protein) (fraction of control) does the source give for GATGCGCTCCAGGTGGGA here?
Answer: 0.58

Question: With CGGCTGAATCGAGCAGGT as the sequence, how does the remaining target (mRNA or protein) (fraction of control) read?
Answer: 0.93

Question: For AAAGCCATAGCCAGTTGC, which remaining target (mRNA or protein) (fraction of control) is on record?
Answer: ≥ 1

Question: With ACGTAGCCCTCCTCGGTG as the sequence, how does the remaining target (mRNA or protein) (fraction of control) read?
Answer: ≥ 1

Question: Which remaining target (mRNA or protein) (fraction of control) does the source give for CCTGTTTACTGCTCTCCC here?
Answer: 0.8

Question: With GTGGTTGCGTGCCGATTCAC as the sequence, how does the remaining target (mRNA or protein) (fraction of control) read?
Answer: 0.5

Question: For ATCAGACTGGAGAGGAGC, which remaining target (mRNA or protein) (fraction of control) is on record?
Answer: 0.73

Question: With CCTCCGCCCTCTCTTGCC as the sequence, how does the remaining target (mRNA or protein) (fraction of control) read?
Answer: 0.8

Question: With CTCCAGGATGTCGGTTTT as the sequence, how does the remaining target (mRNA or protein) (fraction of control) read?
Answer: 0.77

Question: With GCTTCCTGTCCATCACTG as the sequence, how does the remaining target (mRNA or protein) (fraction of control) read?
Answer: 0.71

Question: Which remaining target (mRNA or protein) (fraction of control) does the source give for GCTCCCATCCTCGTCGCC here?
Answer: ≥ 1

Question: For GCCCGCACGGAGCCCTGC, which remaining target (mRNA or protein) (fraction of control) is on record?
Answer: 0.81

Question: With TTTCTGCACGGAGAAGCA as the sequence, how does the remaining target (mRNA or protein) (fraction of control) read?
Answer: 0.26

Question: Which remaining target (mRNA or protein) (fraction of control) does the source give for TAAGAGGCCACAGCAGGCTC here?
Answer: 0.42

Question: With CACCTGCAGCCGCCCGTCCA as the sequence, how does the remaining target (mRNA or protein) (fraction of control) read?
Answer: 0.55

Question: With CTCATCCGGATAGTACACAT as the sequence, how does the remaining target (mRNA or protein) (fraction of control) read?
Answer: 0.64

Question: With CTCATAGCAGGCCCGGAT as the sequence, how does the remaining target (mRNA or protein) (fraction of control) read?
Answer: 0.44

Question: Which remaining target (mRNA or protein) (fraction of control) does the source give for GCTGTGTCTCTGGGCATC here?
Answer: ≥ 1
